Experimental data reported in patent US6534514B1, “Kappa opioid receptor antagonists” (Regents of the University of Minnesota, priority 1993, dated 2003).

Key:
kappa opioid receptors = target: T1, kappa opioid receptors (Cavia porcellus, UniProt P41144); assay: Guinea pig ileal longitudinal muscle (GPI), antagonism of ethylketazocine (EK); assay type: cell-based
T1 construct: a strip of longitudinal muscle with the myenteric plexus attached was prepared; from tissue; host or cells: guinea pig ileal longitudinal muscle with myenteric plexus (Dunkin-Hartley males)
T1 sequence (P41144 whole entry): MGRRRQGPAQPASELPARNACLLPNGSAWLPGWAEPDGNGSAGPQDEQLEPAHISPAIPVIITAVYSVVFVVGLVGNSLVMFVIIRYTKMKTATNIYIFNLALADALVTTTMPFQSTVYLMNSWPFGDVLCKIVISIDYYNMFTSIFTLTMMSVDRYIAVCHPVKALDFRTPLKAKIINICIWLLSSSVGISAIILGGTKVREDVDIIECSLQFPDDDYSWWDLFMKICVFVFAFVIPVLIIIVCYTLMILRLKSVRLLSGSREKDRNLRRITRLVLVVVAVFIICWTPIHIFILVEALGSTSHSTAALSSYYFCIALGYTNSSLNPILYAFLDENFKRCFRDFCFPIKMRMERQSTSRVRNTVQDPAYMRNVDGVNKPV
Description: (§1) Physiological data for guinea pig ileal longitudinal muscle (GPI) was obtained by the methodology of H. P. Rang, “Stimulant Actions of Volatile Anaesthetics on Smooth Muscle,” Brit. […] In vivo assays were done s.c. on mice.
(§2) 1. Guinea Pig Ileal Longitudinal Muscle (GPI). Ilea from guinea pigs were taken approximately 10 cm from the ileocecal junction, and a strip of longitudinal muscle with the myenteric plexus attached was prepared by the method of […] et al., Brit. […] A 1 cm portion of this strip was then mounted between two platinum electrodes placed in a 10 ml organ bath and connected to an isometric transducer; contractions were recorded on a polygraph. Contractions of the ileal strip were initiated by supramaximal rectangular pulses in all preparations (80 V of 0.5 ms duration at a frequency of 0.1 Hz). […] The organ bath was maintained at 36°-37° C. The longitudinal muscle strip was allowed to equilibrate with continuous stimulation for a minimum of 90 min. Cumulative concentration-response curves were determined after drugs were added to the bath in preselected amounts and washed out with buffer after noting their maximum effects.
(§3) Concentration-response curves were obtained in the absence (control) and the presence of the antagonist are expressed as IC50 values. The IC50 ratio represents the IC50 in the presence of the antagonist divided by the control IC50 value in the same tissue. Therefore, a high IC50 ratio represents a correspondingly high degree of antagonism at a particular receptor. This IC50 ratio was employed to calculate the Ke value using the equation Ke=[antagonist]/(IC50 ratio-1). Therefore, a low Ke represents a correspondingly high degree of binding at a particular receptor.

mu opioid receptors [1] = conditions: antagonist 100 nM; agonist morphine
Description: as §1, §2, §3

mu opioid receptors [2] = target: T2, mu opioid receptors (Mus musculus, UniProt P42866); assay: Mouse writhing procedure, antagonism of morphine; assay type: in vivo; conditions: mice; agonist 50 nmol; antagonist 4 mg/kg sc
T2 construct: tested in vivo using the mouse writhing procedure of G. Hayashi et al; from tissue; host or cells: whole mouse in vivo (s.c. dosing)
T2 sequence (P42866 whole entry): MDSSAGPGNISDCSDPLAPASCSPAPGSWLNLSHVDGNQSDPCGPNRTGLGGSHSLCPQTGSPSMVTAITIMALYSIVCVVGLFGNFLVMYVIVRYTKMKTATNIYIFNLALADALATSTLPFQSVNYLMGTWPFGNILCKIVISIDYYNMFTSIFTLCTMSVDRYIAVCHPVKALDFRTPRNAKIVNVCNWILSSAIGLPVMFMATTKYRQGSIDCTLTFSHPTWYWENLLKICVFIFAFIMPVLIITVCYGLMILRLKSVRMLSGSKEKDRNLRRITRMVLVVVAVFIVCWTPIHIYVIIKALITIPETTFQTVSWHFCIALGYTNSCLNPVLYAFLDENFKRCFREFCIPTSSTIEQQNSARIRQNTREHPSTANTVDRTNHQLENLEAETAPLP
Text: (§4) Physiological data for guinea pig ileal longitudinal muscle (GPI) was obtained by the methodology of H. P. Rang, “Stimulant Actions of Volatile Anaesthetics on Smooth Muscle,” Brit. J. Pharmacol., 22, 356 (1964) on Dunkin-Hartley males; mouse vas deferens (MVD) data was obtained using Henderson's method on Swiss-Webster males (G. Henderson et al., “A New Example of a Morphine-Sensitive Neuroeffector Junction: Adrenergic Transmission in the Mouse vas Deferens,” Brit. J. Pharmacol., 46, 764 (1972). Guinea pig brain membrane binding assays were done on Dunkin-Hartley males using a modification of the method of L. L. Werling et al., “Opioid Binding to Rat and Guinea Pig Neural Membranes in the Presence of Physiological Cations at 37° C.,” J. Pharmacol. Exp. Ther., 233 722 (1985). In vivo assays were done s.c. on mice.
(§5) Compound δ was tested in vivo using the mouse writhing procedure of G. Hayashi et al., Eur. J. Pharmacol., 85, 163 (1982).

delta opioid receptors [3] = target: T3, delta opioid receptors (Mus musculus, UniProt P32300); assay: Mouse writhing procedure, antagonism of DADLE; assay type: in vivo; conditions: mice; agonist 50 nmol; antagonist 4 mg/kg sc
T3 sequence (P32300 whole entry): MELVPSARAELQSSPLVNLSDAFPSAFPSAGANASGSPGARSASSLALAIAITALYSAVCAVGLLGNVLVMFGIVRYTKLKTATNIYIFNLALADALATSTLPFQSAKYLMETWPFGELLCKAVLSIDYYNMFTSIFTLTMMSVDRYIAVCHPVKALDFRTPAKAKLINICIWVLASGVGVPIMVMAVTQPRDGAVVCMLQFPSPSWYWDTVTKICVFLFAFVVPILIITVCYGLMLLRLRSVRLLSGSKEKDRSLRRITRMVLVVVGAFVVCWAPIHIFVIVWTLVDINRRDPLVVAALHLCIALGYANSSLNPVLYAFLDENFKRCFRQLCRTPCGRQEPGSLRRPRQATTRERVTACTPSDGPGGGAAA
Text: as §4, §5

kappa receptors = target: T4, kappa receptors (Mus musculus, UniProt P33534); assay: Mouse writhing procedure, antagonism of U50488H; assay type: in vivo, mice
T4 construct: tested in vivo using the mouse writhing procedure of G. Hayashi et al; from tissue; host or cells: whole mouse in vivo (s.c. dosing)
T4 sequence (P33534 whole entry): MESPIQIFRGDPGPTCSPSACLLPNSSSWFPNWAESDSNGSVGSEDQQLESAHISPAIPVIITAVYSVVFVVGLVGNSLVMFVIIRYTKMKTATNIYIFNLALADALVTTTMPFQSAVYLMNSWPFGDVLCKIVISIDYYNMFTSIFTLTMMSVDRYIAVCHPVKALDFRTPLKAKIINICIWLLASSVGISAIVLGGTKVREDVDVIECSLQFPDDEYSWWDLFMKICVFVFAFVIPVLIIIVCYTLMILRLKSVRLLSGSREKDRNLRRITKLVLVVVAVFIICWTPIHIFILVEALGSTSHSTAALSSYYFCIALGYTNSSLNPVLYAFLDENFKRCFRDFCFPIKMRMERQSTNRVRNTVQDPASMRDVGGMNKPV
Text: as §4, §5

delta opioid receptors [4] = target: T3, delta opioid receptors; assay: Mouse vas deferens (MVD), antagonism of DADLE (D); assay type: cell-based; design: Both vasa deferentia were dissected out of mice and mounted singly; from tissue; host or cells: mouse vas deferens (Swiss-Webster males) for A3; whole mouse in vivo for A7; conditions: antagonist 100 nM; agonist DADLE
Description: 2. Mouse Vas Deferens (MVD). This assay was performed according to the description by G. Henderson et al., Brit. […] Both vasa deferentia were dissected out of mice and mounted singly through two platinum ring electrodes in a 10 ml organ bath. The bath contained Krebs bicarbonate solution that was continuously bubbled with 95% O2 and 5% CO2. The organ bath was maintained at 37° C. The tissue was attached to an isometric transducer and stimulated transmurally with rectangular pulses ([…], 1 ms duration, supramaximal voltage). Drugs were added cumulatively to the bath in preselected amounts and washed out after noting their maximum effects.
as §3

Substance: 17-(Cyclopropylmethyl)-6,7-dehydro-4,5α-epoxy-3,14-dihydroxy-5-[(N^2-pentanamidino)methyl]-6,7-2′,3′-indolomorphinan Dihydrochloride [Compound 6]
- Selectivity κ/μ (kappa opioid receptors; GPI EK versus GPI morphine): 28
- Selectivity κ/δ (kappa opioid receptors; GPI EK versus MVD DADLE): 93
- kappa antagonist potency compared with norBNI (kappa opioid receptors; GPI, EK): more potent
- kappa selectivity compared with norBNI (kappa opioid receptors; GPI/MVD): more selective
- potency and selectivity compared with norBNI (kappa opioid receptors; GPI/MVD): more potent and selective
- Kb (kappa opioid receptors; antagonist 100 nM, 15 min incubation, agonist ethylketazocine, Ke=[antagonist]/(IC50 ratio-1)): 0.23 nM
- IC50 ratio, EK (GPI) (kappa opioid receptors; antagonist 100 nM, IC50 agonist + antagonist/IC50 agonist, agonist ethylketazocine): 439 ± 100
- IC50 ratio, M (GPI) (mu opioid receptors [1]): 15.7 ± 4.0
- Ke, M (GPI) (mu opioid receptors [1]): 6.80 nM
- ED50 ratio [(agonist + 6)/agonist control], morphine (mu opioid receptors [2]): 1.63
- ED50 ratio [(agonist + 6)/agonist control], DADLE (delta opioid receptors [3]): 0.25
- ED50 ratio [(agonist + 6)/agonist control], U50488H (kappa receptors; mice, agonist 50 nmol, antagonist 4 mg/kg sc): 3.77
- antagonist selectivity in the whole animal model (kappa receptors; mouse writhing, 4 mg/kg sc): selective kappa antagonist
- IC50 ratio, D (MVD) (delta opioid receptors [4]): 4.71 ± 1.06
- Ke, D (MVD) (delta opioid receptors [4]): 26.9 nM
